This is an account of results in the METLIN SMRT retention time set (Domingo-Almenara et al. 2019).

Each structure is given as a SMILES string.

The nature of the data set: gradient 5% acetonitrile 3 min, to 50% in 2 min, to 85% in 15 min, held 3 min, 100 µL/min. The following applies: column: Zorbax Extend-C18 2.1 x 50 mm; eluents: water / acetonitrile, 0.1% formic acid. A digest of the protocol: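 Over 3 months, pure standards in mixtures of ~100 molecules were run by HPLC coupled to a quadrupole time-of-flight mass spectrometer in positive and negative ionization mode. The column was a Zorbax Extend-C18 (2.1 × 50 mm, 1.8 μm) at 100 μL/min, eluted with water and acetonitrile each holding 0.1% formic acid, with 40 μL dead and 900 μL dwell volumes. Retention time was determined from adduct peaks chosen by software and checked manually.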
In turn, `Cc1occc1C(=O)Nc1nc(-c2ccc(CC(C)C)cc2)cs1` came in with an RP-LC retention time of 1350 s. The figure for `O=C(CCc1nc2ccccc2[nH]1)N1CCC(c2noc(-c3ccccn3)n2)C1` (stereo unspecified) is 581 s. `CC(C)c1nc2cccnc2n1CCN1CCN(C(=O)Nc2ccccc2Cl)CC1` gave an RP-LC retention time of 607 s. The figure for `Cc1cc(C)c(Cn2cnc3ccccc32)c(C)c1` is 611 s; for `CCCn1nnc(NCc2ccc(-c3cccc(Cl)c3)o2)n1` it is 1090 s. The figure for `CCn1cccc(-c2nnc(SCC(=O)NCc3ccco3)n2C)c1=O` is 576 s; for `Cc1cccc(CN2CC(=O)N(c3cccc(C)c3)[C@@H]3CS(=O)(=O)C[C@@H]32)c1` it is 826 s; for `Cc1ccc(C)c(NC(=O)Cn2c(=O)n(-c3ccc(F)cc3)c3ncccc32)c1` it is 880 s.

On to `Cc1cn2c(S(=O)(=O)N3CCC4(CC3)OCCO4)c(C(C)C)nc2s1`, for which the RP-LC retention time was determined as 891 s. `CC1CCN(S(=O)(=O)c2ccc3nn(CC(=O)OC(C)(C)C)c(=O)n3c2)CC1` had an RP-LC retention time of 999 s. The result for `CC1CCN(CCNS(=O)(=O)c2ccccc2-c2nc(-c3ccc(F)cc3)no2)CC1` reads 752 s. On to `COCCn1c(C2CCN(S(=O)(=O)c3ccc(F)c(Cl)c3)C2)nc2ccncc21` (stereo unspecified), for which the RP-LC retention time came out at 590 s. The figure for `O=C1Nc2ccccc2SC1C(=O)N1CCC(C(=O)N2CCN(C3CCCCC3)CC2)CC1` (stereo unspecified) is 590 s. Compound `COc1ccc(OC)c(NC(=O)c2nc(C)oc2C)c1` displayed an RP-LC retention time of 935 s. The result for `O=C1NCCCn2cc(S(=O)(=O)Nc3ccc(F)cc3F)cc21` reads 641 s; that for `Cc1ccn2cc(-c3ccc(NS(=O)(=O)c4ccc(Cl)cc4)cc3)nc2n1`, 679 s.

`CCCOCCOC(=O)C1=C(C)NC2=C(C(=O)C(C(=O)OC)C(C)C2)C1c1cccc(F)c1` (stereo unspecified) gave an RP-LC retention time of 965 s. With `CC(C)CCNC(=O)C12CCCC=C1N(c1ccccc1)C(=O)CC2` (stereo unspecified), the RP-LC retention time was found to be 819 s. The figure for `COc1cccc(-c2noc(C3CCCN3C(=O)NCc3ccco3)n2)c1` (stereo unspecified) is 615 s; for `CCOc1ccc(N2C(=O)Nc3ccccc3C2(O)C(=O)NCCCN2CCCCC2)cc1` (stereo unspecified) it is 576 s. The figure for `COCc1cc(=O)n(CC(=O)Nc2ccccc2OC)c(N2CCOCC2)n1` is 846 s. In turn, `Cc1ccccc1CNS(=O)(=O)c1cc2c(s1)CCN(C(=O)C1CCC1)C2` returned an RP-LC retention time of 942 s. The result for `CCNC(=O)c1nc(N(C)C)c2c(C)scc2n1` reads 593 s; that for `O=C(NCC1CCCCC1)C1CCCN(c2nccn3nc(-c4ccccc4Cl)cc23)C1` (stereo unspecified), 1040 s. Compound `CCOC(=O)c1c(S(=O)(=O)N2CC=C(c3ccccc3)CC2)n[nH]c1CC` showed an RP-LC retention time of 927 s. The figure for `CN1C(=O)Cc2cc(C(=O)N3CCCCC3)ccc21` is 652 s; for `CCc1nc2cc(N3CCCC(C(=O)NCCN(C)C)C3)cnc2nc1CC` (stereo unspecified) it is 604 s; for `Cc1oc2c(c1C(=O)NCCc1ccccc1)C1=NC(C)(C)CN1C=N2` it is 653 s. As for `Cc1nc(-c2ccc(OC3CCN(C(=O)CCc4nc5ccccc5[nH]4)C3)cc2)no1` (stereo unspecified), the RP-LC retention time was determined as 643 s. The figure for `COC(=O)c1c(C)[nH]c(C(=O)N2CCC(CC(=O)NCc3ccc(C)o3)CC2)c1C` is 702 s. The figure for `CC(=O)NCC(=O)N1CCCn2cc(-c3ccccc3)nc21` is 570 s; for `Cc1ccc(NC(=O)N2CCCC(C)(C(=O)NCc3ccccc3C)C2)c(Cl)c1` (stereo unspecified) it is 984 s; for `CCOC(=O)C1CCN(C(=O)c2nnc(-c3ccc(S(=O)(=O)N4CCCC4)cc3)o2)CC1` it is 881 s. The result for `CC1(C(=O)NCc2ccc(F)cc2)Cn2cnc(C(=O)NC3CC3)c2C(=O)N1C1CC1` (stereo unspecified) reads 670 s; that for `O=C(NCCC1CCN(S(=O)(=O)c2ccc(F)cc2)CC1)Nc1ccccc1`, 881 s. As for `O=C(Nc1nc(-c2cccnc2)cs1)c1ccc(Br)s1`, the RP-LC retention time came out at 654 s.

For `COc1ccc(C(=O)N2CCC3(CC2)N=C(c2ccc(Cl)cc2)NO3)cc1F`, the RP-LC retention time was 819 s. The figure for `Cc1ccc2c(c1)N(S(C)(=O)=O)CCC(C(=O)Nc1ccccc1)O2` (stereo unspecified) is 892 s; for `CCSc1ccc(-n2ncc(C(=O)NC3CC3)c2C)nn1` it is 722 s; for `O=C(Nc1ccccc1Cl)N1CC(F)(F)C[C@H]1CN1CCCC1` it is 627 s. The result for `COc1ccc(C(=O)Nc2nc(CC(=O)Nc3nc4c(C)cccc4s3)cs2)cc1` reads 1010 s; that for `Cc1ccc2nc(C(=O)N3CCN(c4ccc(Cl)cc4)CC3)cn2c1`, 738 s. The figure for `Fc1ccc(N2CCN(Cc3nc(-c4ccccc4)no3)CC2)cc1` is 964 s; for `O=C(NCc1csc(-c2cccs2)n1)C1CCN(C(=O)Cc2ccc(F)cc2)CC1` it is 778 s. Compound `CCOC(=O)Nc1nc2c(s1)CN(S(=O)(=O)N(C)C)CC2` returned an RP-LC retention time of 670 s. The result for `Cc1cccc(CN2CCN(CC(=O)NCc3ccc4c(c3)OCO4)C(=O)C2=O)c1` reads 723 s; that for `CCCN1C(=O)c2c(C(=O)NCc3cccc(Cl)c3)ncn2CC1(C)C(=O)NC1CCCC1` (stereo unspecified), 858 s.

`O=C(Cn1cnc2nc3c(cc2c1=O)CCCC3)Nc1ccccc1Cl` came in with an RP-LC retention time of 720 s. The figure for `CN(CCc1noc(COc2ccc(F)cc2)n1)C(=O)Nc1cccc(Br)c1` is 971 s; for `CCC(C)NC(=O)C1CCN(c2cnc(N3CCCCC3)nc2)CC1` (stereo unspecified) it is 686 s. The figure for `CCOC(=O)C1CCCN(C(=O)c2cn(-c3cc(N4CCSCC4)ncn3)cn2)C1` (stereo unspecified) is 802 s; for `Cc1ccc(C)c2sc(NC(=O)CN(C)S(C)(=O)=O)nc12` it is 804 s. The result for `Cc1ccc2nc(NC(=O)CSc3nc4c(c(=O)n3-c3ccccc3)SCC4)sc2c1` reads 922 s. For the compound `COc1ccc(-n2cc(C(=O)OCCc3ccccn3)c3cc(OC)c(OC)cc3c2=O)cc1`, the RP-LC retention time was 681 s.

`O=C(COc1ccc(Cl)cc1Cl)Nc1nnc(-c2ccncc2)o1`: the RP-LC retention time was 669 s. On to `Cc1nn(C(C)C(=O)Nc2ccc(F)cc2F)c(=O)c2c(-n3cccc3)n(-c3ccccc3)nc12` (stereo unspecified), for which the RP-LC retention time came to 1100 s. On to `CCn1nc(C)c(CCNC(=O)C2CCCN(C(=O)c3[nH]c(C)cc3C)C2)c1C` (stereo unspecified), for which the RP-LC retention time was determined as 630 s.

Compound `O=C(COc1ccc(F)cc1)NCC1CCC(c2nc3ccccc3[nH]2)CC1` (stereo unspecified) had an RP-LC retention time of 578 s. As to `CN1CC(=O)N(CC(=O)N2CCN(c3cccc(Cl)c3)CC2)c2ccccc2C1=O`, the RP-LC retention time was 747 s. The figure for `CCc1cccc(NC(=O)c2cc(CC)n3nccc3n2)c1` is 1150 s. `N#Cc1ccccc1CN1CCC(N2CC(OCC3CC3)C23CCCCC3)CC1` (stereo unspecified) yielded an RP-LC retention time of 607 s. Regarding `Cc1cc(=O)n2nc(-c3ccc(Cl)cc3)nc2n1CC(=O)NC(C)C`, the RP-LC retention time is 744 s.

In turn, `CC(C)n1cc(S(=O)(=O)N2CCN(c3ccccc3F)CC2)c2cccnc21` returned an RP-LC retention time of 1100 s. The result for `O=C(c1ccc2c(=O)n(-c3ccccc3)c(N3CCCC3)nc2c1)N1CCN(c2ccccn2)CC1` reads 617 s; that for `CC(=O)c1ccc(NC(=O)CCc2c(C)nn(-c3cc(N(C)C)ncn3)c2C)cc1`, 749 s. The result for `Nc1nc(F)nc2c1ncn2[C@@H]1O[C@H](CO)[C@@H](O)[C@@H]1O` reads 573 s. The result for `Cc1oc2c(c1C(=O)Nc1cccc(Br)c1)C1=NCCN1C=N2` reads 643 s; that for `CC1CCN(C(=O)c2csc(-c3ccc(N4CCCC4)nc3)n2)CC1`, 660 s. Compound `CN(CCc1noc(C2CN(Cc3ccc(Cl)c(F)c3)C2)n1)S(C)(=O)=O` came in with an RP-LC retention time of 633 s. The result for `CN(C)C(=O)/N=N/C(=O)N(C)C` reads 597 s. The figure for `COc1ccc(-c2nc(C3CC(=O)N(c4ccc(C)cc4)C3)no2)c(OC)c1` (stereo unspecified) is 939 s; for `CCOCCCNC(=O)N1c2ccccc2CC1c1nc(C(C)C)no1` (stereo unspecified) it is 901 s. The compound `CC(=O)N1CCN(C(=O)c2ccc(O)cc2)CC1` registered an RP-LC retention time of 515 s. The figure for `COc1ccc(C(=O)Nc2cnn(C)c(=O)c2N2CCOCC2)cc1OC` is 684 s; for `O=C(O)c1[nH]nc2c1COc1ccccc1-2` it is 673 s.

The compound `O=C1COc2cc(S(=O)(=O)N3CCCC3C(=O)NCCN3CCCCCC3)c(Cl)cc2N1` (stereo unspecified) came in with an RP-LC retention time of 587 s.

For the compound `CCN(Cc1ccccc1)C(=O)c1noc2c1CCCC2`, the RP-LC retention time is 1010 s. The result for `O=C(CN1CCN(C(=O)c2ccco2)CC1)Nc1cc(Cl)ccc1Cl` reads 704 s; that for `COc1ccc(CCNC(=O)c2cc(C3CC3)[nH]n2)cc1OC`, 690 s.

`CNC(=O)N1CCCC(c2cccc(C(=O)NCc3ccc(SC)cc3)c2)C1` (stereo unspecified) gave an RP-LC retention time of 779 s. The result for `COc1ccc(CC(=O)N2CCc3nc(CNC(=O)C4CCC4)n(C)c3C2)cc1` reads 589 s.
